Test results published in US8252788B2, “Therapeutic compounds” (Allergan, Inc., priority 2008, dated 2012).

Columns and labels:
[1] = tested on: laser-induced hypertensive monkeys; assay: In vivo intraocular pressure (IOP) test in laser-induced hypertensive monkeys
normotensive dogs = assay: In vivo intraocular pressure (IOP) test in normotensive dogs
Procedure: Title compounds H145 and H146 from above are tested in vivo to test its ability to reduce intraocular pressure. Compound H145 is tested in normotensive dogs.

[2] = tested on: lashes and adjacent hairs; assay: Observation of lashes and adjacent hairs in glaucoma patients treated with bimatoprost in one eye; format: in vivo
Text: In the course of treating patients having glaucoma, treatment may only be appropriate in one eye. […] The lash appearance on the lids of the treated eyes would have appeared quite attractive if it represented a bilateral phenomenon. As a result of its asymmetric nature, the long lashes on one side could be construed as disturbing from a cosmetic standpoint. A systemic examination was preformed as a result of the asymmetric phenomenon. It soon became apparent that this altered appearance was not an isolated finding. […] Definite differences could be identified to varying degrees in the lashes and adjacent hairs of all patients who were taking the drug on a unilateral basis for longer than 6 months.
The changes in the lashes were apparent on gross inspection in several patients once attention was focused on the issue. In those with light colored hair and lashes, the differences were only seen easily with the aid of the high magnification and lighting capabilities of the slit lamp biomicroscope. In the course of glaucoma follow-up examination, attention is generally immediately focused on the eye itself. As a result of the high power magnification needed only one eye is seen at a time and the eye is seen at a high enough power that the lashes are not in focus. […]

Row | SMILES | IOP versus baseline [1] | intraocular pressure (IOP) versus baseline (normotensive dogs) | lash appearance in treated eye versus non-treated eye ([2]; glaucoma patient treated in one eye) | hair growth in treated versus control areas ([2]; multiple parameters of hair appearance, many subjects)
1 | O=C(OCCO)c1ccc(CCC[C@@H]2[C@@H](CSc3cc(Cl)cc(Cl)c3)[C@H](O)C[C@H]2Cl)s1 [Compound H145] | decreases from baseline | decreases from baseline |  | 
2 | O=C(OCCN1CCOCC1)c1ccc(CCC[C@@H]2[C@@H](CSc3cc(Cl)cc(Cl)c3)[C@H](O)C[C@H]2Cl)s1 [Compound H146] | decreases from baseline | decreases from baseline |  | 
3 | O=C(OCCO)c1ccc(CCC[C@@H]2[C@@H](CNc3cc(Cl)cc(Cl)c3)[C@H](O)C[C@H]2Cl)s1 [Compound H147] | decreases from baseline | decreases from baseline |  | 
4 | O=C(OCCN1CCOCC1)c1ccc(CCC[C@@H]2[C@@H](CNc3cc(Cl)cc(Cl)c3)[C@H](O)C[C@H]2Cl)s1 [Compound H148] | decreases from baseline | decreases from baseline |  | 
5 | CCNC(=O)CCC/C=C\C[C@@H]1[C@@H](/C=C/[C@@H](O)CCc2ccccc2)[C@H](O)C[C@@H]1O [bimatoprost] |  |  | longer, thicker, and fuller | stimulated
